Data on four compounds can be found in PubChem BioAssay (NCI).

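Five compound concentrations were applied to cells in 96-well plates for 48 hours; endpoints were derived by simple linear interpolation of the resulting dose-response curve. TGI denotes the concentration required for complete inhibition of growth.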

For orientation: TGI means the concentration at which net growth stops. The low end stands for more potent growth arrest, the high end for less potent growth arrest.

One experiment has as its system SK-MEL-5 melanoma. As to the kind of experiment: DTP human tumour cell line panel, 48 h.
On to `C=C(C)C1CC2(C)C(C)CC(O)CC2C(OC(=O)C=C(C)C)C1O` (configuration not stated), for which the TGI was found to be 49.2 µM.
The same measure, in the same setting: next, `CC1(C)N/C(=C\[N+](=O)[O-])C(C)(C)N1O`: above 10 µM.

A further experiment concerns DU-145 prostate. In words: DTP human tumour cell line panel, 48 h.
On to `COC(=O)c1csc([C@@H](OC(=O)[C@H](C)[C@H](CCCC(C)(Cl)Cl)OC(=O)c2csc([C@H](O)CO)n2)C(C)C)n1`, for which the TGI came out at 24.8 µM.
Still for that read-out and setting: the value for `CC(=O)OCC1OC(N2C(C)=C(C(C)=O)C(c3ccc(Cl)cc3)C(C#N)=C2S)C(OC(C)=O)C(OC(C)=O)C1OC(C)=O` (configuration not stated) was above 100 µM; that for `C=C(C)C1CC2(C)C(C)CC(O)CC2C(OC(=O)C=C(C)C)C1O` (configuration not stated) was above 100 µM; that for `CC1(C)N/C(=C\[N+](=O)[O-])C(C)(C)N1O` was above 10 µM.

The subject of a further experiment is COLO 205 colon. As to the kind of experiment: DTP human tumour cell line panel, 48 h.
For `COC(=O)c1csc([C@@H](OC(=O)[C@H](C)[C@H](CCCC(C)(Cl)Cl)OC(=O)c2csc([C@H](O)CO)n2)C(C)C)n1`, the TGI turned out to be 32.3 µM. This lies in the double-digit micromolar range.
The same measure, in the same setting: the value for `CC(=O)OCC1OC(N2C(C)=C(C(C)=O)C(c3ccc(Cl)cc3)C(C#N)=C2S)C(OC(C)=O)C(OC(C)=O)C1OC(C)=O` (configuration not stated) was 35.6 µM.
As to `C=C(C)C1CC2(C)C(C)CC(O)CC2C(OC(=O)C=C(C)C)C1O` (configuration not stated), the TGI stood at 32.4 µM.
On the same count and under the same terms, the value for `CC1(C)N/C(=C\[N+](=O)[O-])C(C)(C)N1O` was above 10 µM.

The subject of a further experiment is SNB-75 CNS. As to the kind of experiment: DTP human tumour cell line panel, 48 h.
`COC(=O)c1csc([C@@H](OC(=O)[C@H](C)[C@H](CCCC(C)(Cl)Cl)OC(=O)c2csc([C@H](O)CO)n2)C(C)C)n1` came in with a concentration for total growth inhibition (TGI) of 11 µM.
In turn, `CC(=O)OCC1OC(N2C(C)=C(C(C)=O)C(c3ccc(Cl)cc3)C(C#N)=C2S)C(OC(C)=O)C(OC(C)=O)C1OC(C)=O` (configuration not stated) came in with a TGI above 100 µM.
Regarding `C=C(C)C1CC2(C)C(C)CC(O)CC2C(OC(=O)C=C(C)C)C1O` (configuration not stated), the TGI came out at 40.5 µM.
Compound `CC1(C)N/C(=C\[N+](=O)[O-])C(C)(C)N1O` yielded a total growth inhibition concentration (TGI) above 10 µM.

The test system of the next experiment is BT-549 breast. In words: DTP human tumour cell line panel, 48 h.
On to `COC(=O)c1csc([C@@H](OC(=O)[C@H](C)[C@H](CCCC(C)(Cl)Cl)OC(=O)c2csc([C@H](O)CO)n2)C(C)C)n1`, for which the TGI was determined as 31 µM.
Same read-out and setting: next, `CC(=O)OCC1OC(N2C(C)=C(C(C)=O)C(c3ccc(Cl)cc3)C(C#N)=C2S)C(OC(C)=O)C(OC(C)=O)C1OC(C)=O` (configuration not stated): above 100 µM; `C=C(C)C1CC2(C)C(C)CC(O)CC2C(OC(=O)C=C(C)C)C1O` (configuration not stated): above 100 µM.
In the case of `CC1(C)N/C(=C\[N+](=O)[O-])C(C)(C)N1O`, the TGI was above 10 µM.

A further experiment has as its system U251 CNS. In words: DTP human tumour cell line panel, 48 h.
As for `COC(=O)c1csc([C@@H](OC(=O)[C@H](C)[C@H](CCCC(C)(Cl)Cl)OC(=O)c2csc([C@H](O)CO)n2)C(C)C)n1`, the TGI was 32 µM.
With `CC(=O)OCC1OC(N2C(C)=C(C(C)=O)C(c3ccc(Cl)cc3)C(C#N)=C2S)C(OC(C)=O)C(OC(C)=O)C1OC(C)=O` (configuration not stated), the total growth inhibition concentration (TGI) was above 100 µM.
Still for that read-out and setting: next, `C=C(C)C1CC2(C)C(C)CC(O)CC2C(OC(=O)C=C(C)C)C1O` (configuration not stated): above 100 µM.
`CC1(C)N/C(=C\[N+](=O)[O-])C(C)(C)N1O` showed a TGI above 10 µM.

The next experiment relates to PC-3 prostate. In words: DTP human tumour cell line panel, 48 h.
Consider `COC(=O)c1csc([C@@H](OC(=O)[C@H](C)[C@H](CCCC(C)(Cl)Cl)OC(=O)c2csc([C@H](O)CO)n2)C(C)C)n1`, for which the concentration for total growth inhibition (TGI) amounted to 26.7 µM.
On the same count and under the same terms, next, `CC(=O)OCC1OC(N2C(C)=C(C(C)=O)C(c3ccc(Cl)cc3)C(C#N)=C2S)C(OC(C)=O)C(OC(C)=O)C1OC(C)=O` (configuration not stated): above 100 µM.
In the case of `C=C(C)C1CC2(C)C(C)CC(O)CC2C(OC(=O)C=C(C)C)C1O` (configuration not stated), the TGI is above 100 µM.
On the same count and under the same terms, next, `CC1(C)N/C(=C\[N+](=O)[O-])C(C)(C)N1O`: above 10 µM.

The next experiment relates to HL-60(TB) leukemia. In words: DTP human tumour cell line panel, 48 h.
In turn, `COC(=O)c1csc([C@@H](OC(=O)[C@H](C)[C@H](CCCC(C)(Cl)Cl)OC(=O)c2csc([C@H](O)CO)n2)C(C)C)n1` displayed a TGI of 35.1 µM.
On the same count and under the same terms, the value for `CC(=O)OCC1OC(N2C(C)=C(C(C)=O)C(c3ccc(Cl)cc3)C(C#N)=C2S)C(OC(C)=O)C(OC(C)=O)C1OC(C)=O` (configuration not stated) was above 100 µM; that for `C=C(C)C1CC2(C)C(C)CC(O)CC2C(OC(=O)C=C(C)C)C1O` (configuration not stated) was 50.5 µM; that for `CC1(C)N/C(=C\[N+](=O)[O-])C(C)(C)N1O` was above 10 µM.

In a further experiment the test system is HCC-2998 colon. In words: DTP human tumour cell line panel, 48 h.
In turn, `COC(=O)c1csc([C@@H](OC(=O)[C@H](C)[C@H](CCCC(C)(Cl)Cl)OC(=O)c2csc([C@H](O)CO)n2)C(C)C)n1` had a TGI of 22.2 µM.
The same measure, in the same setting: next, `CC(=O)OCC1OC(N2C(C)=C(C(C)=O)C(c3ccc(Cl)cc3)C(C#N)=C2S)C(OC(C)=O)C(OC(C)=O)C1OC(C)=O` (configuration not stated): above 100 µM.
`C=C(C)C1CC2(C)C(C)CC(O)CC2C(OC(=O)C=C(C)C)C1O` (configuration not stated) registered a TGI above 100 µM.
Same read-out and setting: the value for `CC1(C)N/C(=C\[N+](=O)[O-])C(C)(C)N1O` was above 10 µM.

The test system of the next experiment is UO-31 renal. As to the kind of experiment: DTP human tumour cell line panel, 48 h.
The compound `COC(=O)c1csc([C@@H](OC(=O)[C@H](C)[C@H](CCCC(C)(Cl)Cl)OC(=O)c2csc([C@H](O)CO)n2)C(C)C)n1` gave a TGI of 19.9 µM. That is a double-digit micromolar value.
Still for that read-out and setting: next, `CC(=O)OCC1OC(N2C(C)=C(C(C)=O)C(c3ccc(Cl)cc3)C(C#N)=C2S)C(OC(C)=O)C(OC(C)=O)C1OC(C)=O` (configuration not stated): 88.8 µM; `C=C(C)C1CC2(C)C(C)CC(O)CC2C(OC(=O)C=C(C)C)C1O` (configuration not stated): 74.4 µM.

Another experiment has as its system SK-MEL-2 melanoma. In words: DTP human tumour cell line panel, 48 h.
With `COC(=O)c1csc([C@@H](OC(=O)[C@H](C)[C@H](CCCC(C)(Cl)Cl)OC(=O)c2csc([C@H](O)CO)n2)C(C)C)n1`, the concentration for total growth inhibition (TGI) was determined as 28.9 µM. This lies in the double-digit micromolar range.
The compound `CC(=O)OCC1OC(N2C(C)=C(C(C)=O)C(c3ccc(Cl)cc3)C(C#N)=C2S)C(OC(C)=O)C(OC(C)=O)C1OC(C)=O` (configuration not stated) displayed a TGI above 100 µM.
`C=C(C)C1CC2(C)C(C)CC(O)CC2C(OC(=O)C=C(C)C)C1O` (configuration not stated) displayed a TGI above 100 µM.
Same read-out and setting: the value for `CC1(C)N/C(=C\[N+](=O)[O-])C(C)(C)N1O` was above 10 µM.

The next experiment relates to SNB-19 CNS. In words: DTP human tumour cell line panel, 48 h.
`COC(=O)c1csc([C@@H](OC(=O)[C@H](C)[C@H](CCCC(C)(Cl)Cl)OC(=O)c2csc([C@H](O)CO)n2)C(C)C)n1` returned a TGI of 26.8 µM.
Consider `CC(=O)OCC1OC(N2C(C)=C(C(C)=O)C(c3ccc(Cl)cc3)C(C#N)=C2S)C(OC(C)=O)C(OC(C)=O)C1OC(C)=O` (configuration not stated), for which the TGI was above 100 µM.
`C=C(C)C1CC2(C)C(C)CC(O)CC2C(OC(=O)C=C(C)C)C1O` (configuration not stated) gave a TGI above 100 µM.
Same read-out and setting: the value for `CC1(C)N/C(=C\[N+](=O)[O-])C(C)(C)N1O` was above 10 µM.

The subject of a further experiment is CCRF-CEM leukemia. As to the kind of experiment: DTP human tumour cell line panel, 48 h.
Regarding `COC(=O)c1csc([C@@H](OC(=O)[C@H](C)[C@H](CCCC(C)(Cl)Cl)OC(=O)c2csc([C@H](O)CO)n2)C(C)C)n1`, the TGI was found to be 34.8 µM.
In turn, `CC(=O)OCC1OC(N2C(C)=C(C(C)=O)C(c3ccc(Cl)cc3)C(C#N)=C2S)C(OC(C)=O)C(OC(C)=O)C1OC(C)=O` (configuration not stated) displayed a concentration for total growth inhibition (TGI) above 100 µM.
Regarding `C=C(C)C1CC2(C)C(C)CC(O)CC2C(OC(=O)C=C(C)C)C1O` (configuration not stated), the TGI stood at 84.7 µM.
The same measure, in the same setting: the value for `CC1(C)N/C(=C\[N+](=O)[O-])C(C)(C)N1O` was above 10 µM.

In the next experiment the test system is 786-0 renal. As to the kind of experiment: DTP human tumour cell line panel, 48 h.
The compound `COC(=O)c1csc([C@@H](OC(=O)[C@H](C)[C@H](CCCC(C)(Cl)Cl)OC(=O)c2csc([C@H](O)CO)n2)C(C)C)n1` registered a TGI of 28.3 µM.
As for `CC(=O)OCC1OC(N2C(C)=C(C(C)=O)C(c3ccc(Cl)cc3)C(C#N)=C2S)C(OC(C)=O)C(OC(C)=O)C1OC(C)=O` (configuration not stated), the TGI was above 100 µM.
On the same count and under the same terms, the value for `C=C(C)C1CC2(C)C(C)CC(O)CC2C(OC(=O)C=C(C)C)C1O` (configuration not stated) was above 100 µM.
Compound `CC1(C)N/C(=C\[N+](=O)[O-])C(C)(C)N1O` returned a TGI above 10 µM.

In another experiment the test system is HCT-15 colon. As to the kind of experiment: DTP human tumour cell line panel, 48 h.
Take `COC(=O)c1csc([C@@H](OC(=O)[C@H](C)[C@H](CCCC(C)(Cl)Cl)OC(=O)c2csc([C@H](O)CO)n2)C(C)C)n1`: the TGI came out at 31 µM.
The same measure, in the same setting: next, `CC(=O)OCC1OC(N2C(C)=C(C(C)=O)C(c3ccc(Cl)cc3)C(C#N)=C2S)C(OC(C)=O)C(OC(C)=O)C1OC(C)=O` (configuration not stated): above 100 µM; `C=C(C)C1CC2(C)C(C)CC(O)CC2C(OC(=O)C=C(C)C)C1O` (configuration not stated): above 100 µM; `CC1(C)N/C(=C\[N+](=O)[O-])C(C)(C)N1O`: above 10 µM.
